# Laboratory results as given in ChEMBL document CHEMBL3351674, “Novel polycarboxylate porphyrins: synthesis, characterization, photophysical properties and preliminary antimicrobial study against Gram-positive bacteria” (Bioorg Med Chem Lett, 2015).
# Calls of active or inactive are those of the source. The rule behind the calls is not given here.
# Columns and labels:
# [1] = 2-octanol-aqueous buffer partition coefficient, logP of the compound at pH 7.4; type: physicochemical
# [2] = Photostability of the compound in air-saturated phosphate buffer solution under 2.5 mW/cm'2 white light; type: physicochemical
# [3] = Photostability of the compound in nitrogen-saturated phosphate buffer solution under 2.5 mW/cm'2 white light; type: physicochemical
# Staphylococcus aureus = test: Antibacterial activity against Staphylococcus aureus assessed as decrease in cell viability at > 50 uM after 30 mins under 2.5 mW/cm'2 white light by confocal microscopy/UV-diode laser method; type: functional, organism-based
# Bacillus cereus = test: Antibacterial activity against Bacillus cereus assessed as decrease in cell viability at > 50 uM after 30 mins under 2.5 mW/cm'2 white light by confocal microscopy/UV-diode laser method; type: functional, organism-based
Structure (SMILES),logD [1],Stability [2],Stability [3],Activity (Staphylococcus aureus),Activity (Bacillus cereus)
CC(C)(C)OC(=O)COc1cc(OCC(=O)OC(C)(C)C)c(-c2c3nc(c(-c4ccc(C(=O)O)cc4)c4ccc([nH]4)c(-c4c(OCC(=O)OC(C)(C)C)cc(OCC(=O)OC(C)(C)C)cc4OCC(=O)OC(C)(C)C)c4nc(c(-c5ccc(C(=O)O)cc5)c5ccc2[nH]5)C=C4)C=C3)c(OCC(=O)OC(C)(C)C)c1,1.66,,,,
O=C(O)COc1cc(OCC(=O)O)c(-c2c3nc(c(-c4ccc(C(=O)O)cc4)c4ccc([nH]4)c(-c4c(OCC(=O)O)cc(OCC(=O)O)cc4OCC(=O)O)c4nc(c(-c5ccc(C(=O)O)cc5)c5ccc2[nH]5)C=C4)C=C3)c(OCC(=O)O)c1,-2.17,Unstable,Stable,Active,inactive
Cc1cc(C)c(-c2c3nc(c(-c4c(OCC(=O)O)cc(OCC(=O)O)cc4OCC(=O)O)c4ccc([nH]4)c(-c4c(C)cc(C)cc4C)c4nc(c(-c5c(OCC(=O)O)cc(OCC(=O)O)cc5OCC(=O)O)c5ccc2[nH]5)C=C4)C=C3)c(C)c1,-0.77,Unstable,Stable,Active,Active
